{
  "source": "patent US6486161B1",
  "about": "“Use of rifamycin derivative for treating mastitis in a domestic animal” (priority 2000, dated 2002)",
  "key": {"[1]": {"system": "Staphylococcus aureus B83-1 strain (derived from Newbould 305)", "experiment": "Therapeutic test in bovine mammary glands with experimental mastitis", "format": "in vivo, Holstein dairy cow", "experimental": "As the rifamycin derivative (1), a compound A wherein R is methyl group, i. e. R≡ CH3, was examined for its therapeutic effect on bovine mastitis as follows.\nThe therapeutic test for infection in bovine mammary glands was carried out by inoculating […] of Staphylococcus [Staphylococcus aureus B83-1 strain (derived from Newbould 305)] into one mammary gland of a Holstein dairy cow (2-5 years old) to cause experimental mastitis.\nTo one mammary gland of each cow in a treated group, the compound A used in the present invention was administered (infused through the lactiferous duct) in an amount of 50 mg in 10 ml of benzyl alcohol per day successively for two days, twenty-one days after the infection. To one mammary gland of each cow in a control group, benzyl alcohol was administered in an amount of 10 ml per day in the same manner as in the treated group. The therapeutic effect of the compound A was examined by counting colony forming units (CFUs) of Staphylococcus in 1 ml of milk obtained from a cow subjected to the test. Comparing the above two groups, the therapeutic effect of the compound A on bovine mastitis was evaluated.\nStaphylococcus was inoculated into forty-four mammary glands of eleven cows. Twenty-one days later, the number of mammary glands wherein Staphylococcus was separated from milk, i.e. number of mammary glands with mastitis, was counted. […]"}, "[2]": {"system": "rifampin-resistant S. aureus isolated from diseased animals", "format": "cell-based, Staphylococcus aureus", "conditions": "range over the 13 rifampin-resistant strains", "experimental": "The antibacterial effect of the rifamycin derivative (1) against rifampin-resistant Staphylococcus aureus bacterial strains was determined. The tested bacterial strains were isolated from a variety of animal diseases as well as laboratory strains.\nAll bacteria were maintained on 3 mm glass beads immersed in trypticase soy broth (BBL Microbiology Systems, Cockeysville, Md.) with 10% glycerol and held at −70° C. until revived. Prior to testing, the organisms were subcultured on tryptose blood agar base (Difco, Detroit, Mich.) supplemented with 5% sheep blood for 24 hours at 35° C.\nThe compounds were dissolved in 95% ethanol and diluted to 10% ethanol in sterile, distilled water except for the compounds used in the in vivo testing where saline was used to dilute the original ethanol/drug suspension. Further dilutions were conducted in water or saline.\nMICs were determined using the microbroth dilution method. In addition to the test organisms, the following quality control strain also was tested: Staphylococcus aureus ATCC 29213. The results are shown in Table 5, wherein R is the alkyl group R in the rifamycin derivative (1)."}},
  "data": [
    {"compound": "COC1/C=C/OC2(C)Oc3c(C)c(O)c4c(=O)c(c5oc6cc(N7CCN(C)CC7)cc(O)c6nc-5c4c3C2=O)NC(=O)/C(C)=C\\C=C\\C(C)C(O)C(C)C(O)C(C)C(OC(C)=O)C1C", "note": "(stereo not drawn) [R = methyl]", "values": [
      {"measurement": "curing ratio", "setting": "[1]; cow, 50 mg per day for two days infused through the lactiferous duct, twenty-one days after infection", "result": 64, "unit": "%"},
      {"measurement": "mammary glands negative (at most ten CFU per ml milk) in all the examined days", "setting": "[1]; of twenty-two treated mammary glands, 50 mg in 10 ml benzyl alcohol per day for two days via lactiferous duct, 7-28 days after administration", "result": "fourteen"},
      {"measurement": "MIC Range", "setting": "[2]", "result": "0.06 to 4.0", "unit": "µg/mL"}
    ]}
  ]
}
